Columns and labels:
[1] = system: SMN2 minigene (full length SMN2 minigene mRNA containing SMN2 exon 7); test: SMN2 minigene mRNA splicing RT-qPCR assay in cultured cells; type: cell-based, human; details: Homo sapiens, HEK293-H; HEK293H cells stably transfected with SMN2-A minigene; 24 hours; 7-point concentration curve; 1.5-fold relative to vehicle-treated cells; read-out: EC1.5x for production of full length SMN2 mRNA
In short: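 Lysates → one-step RT-qPCR, minigene-specific primers (0.4 μM final) + GAPDH multiplex, 40 cycles. FL/GAPDH vs DMSO; EC1.5x, star-binned.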

Smn protein = Smn protein assay in cultured cells (SMN HTRF); type: cell-based, human; details: 48 hours; for maximum fold (Fold) increase of Smn protein: SMA patient fibroblast cells, 7-point concentration data, fold increase relative to vehicle control (SMN HTRF); for EC1.5x (concentration giving 1.5-fold Smn protein increase): SMA Type 1 patient fibroblast cells (GM03813), 7-point concentration curve, SMN HTRF, concentration producing 1.5 times Smn protein vs DMSO vehicle control, read-out: EC1.5x for Smn protein expression
In short: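 Smn in SMA fibroblast lysates, measured by anti-SMN HTRF after 48 h compound exposure; EC1.5x from fold change over vehicle.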

Row | Structure (SMILES) | EC (1.5-fold) [1] [µM] | maximum fold (Fold) increase of Smn protein (Smn protein) | EC1.5x (concentration giving 1.5-fold Smn protein increase) (Smn protein) [nM]
1 | C[C@@H]1CN(c2ccc3cc(-c4cc5ncccn5c4)c(=O)oc3c2)C[C@H](C)N1 [Compound 580, 7-[(3R,5S)-3,5-dimethylpiperazin-1-yl]-3-(pyrrolo[1,2-a]pyrimidin-7-yl)-2H-chromen-2-one] | 1 to 3 | * (maximum fold increase of ≤1.2) | 
2 | Cc1cn2cc(-c3cc4c(F)cc(N5CCN[C@@H](C)C5)cc4oc3=O)nc2cn1 [Compound 593, 5-fluoro-3-(6-methylimidazo[1,2-a]pyrazin-2-yl)-7-[(3S)-3-methylpiperazin-1-yl]-2H-chromen-2-one] | < 0.1 | ***** (fold increase >1.65) | < 300
3 | Cc1cn2cc(-c3cc4ccc(O[C@@H]5CCNC5)cc4oc3=O)nc2c(C)n1 [Compound 601, 3-(6,8-dimethylimidazo[1,2-a]pyrazin-2-yl)-7-[(3R)-pyrrolidin-3-yloxy]-2H-chromen-2-one] | < 0.1 | ***** (fold increase >1.65) | < 300
4 | Cc1cn2cc(-c3cc4ccc(N5CCN6CCC[C@H]6C5)cc4oc3=O)nc2cn1 [Compound 609, 7-[(8aS)-hexahydropyrrolo[1,2-a]pyrazin-2(1H)-yl]-3-(6-methylimidazo[1,2-a]pyrazin-2-yl)-2H-chromen-2-one] | < 0.1 | ***** (fold increase >1.65) | < 300
5 | CCN1CCCN(c2ccc3cc(-c4cn5cc(C)ncc5n4)c(=O)oc3c2)CC1 [Compound 618, 7-(4-ethyl-1,4-diazepan-1-yl)-3-(6-methylimidazo[1,2-a]pyrazin-2-yl)-2H-chromen-2-one] | < 0.1 | **** (fold increase between >1.5 and ≤1.65) | < 300
6 | C[C@H]1CN(c2ccc3cc(-c4cc5cnccc5s4)c(=O)oc3c2)CCN1 [Compound 629, 7-[(3S)-3-methylpiperazin-1-yl]-3-(thieno[3,2-c]pyridin-2-yl)-2H-chromen-2-one] | 0.3 to 1 | * (maximum fold increase of ≤1.2) | 
7 | Cc1cn2cc(-c3cc4ccc(N5C[C@@H]6C[C@H]5CN6)cc4oc3=O)nc2c(C)n1 [Compound 648, 7-[(1S,4S)-2,5-diazabicyclo[2.2.1]hept-2-yl]-3-(6,8-dimethylimidazo[1,2-a]pyrazin-2-yl)-2H-chromen-2-one] | < 0.1 | ***** (fold increase >1.65) | < 300
8 | Cc1cn2cc(-c3cc4ccc(N5CCN[C@H](C)C5)cc4oc3=O)cnc2n1 [Compound 650, 3-(2-methylimidazo[1,2-a]pyrimidin-6-yl)-7-[(3R)-3-methylpiperazin-1-yl]-2H-chromen-2-one] | < 0.1 | **** (fold increase between >1.5 and ≤1.65) | 300 to 1000
9 | Cc1cn2cc(-c3cc4ccc(N5CCN[C@H](C)C5)cc4oc3=O)ccc2n1 [Compound 652, 3-(2-methylimidazo[1,2-a]pyridin-6-yl)-7-[(3R)-3-methylpiperazin-1-yl]-2H-chromen-2-one] | < 0.1 | **** (fold increase between >1.5 and ≤1.65) | < 300
10 | Cc1cn2cc(-c3cc4c(F)cc(N5CCN(C)[C@@H](C)C5)cc4oc3=O)nc2cn1 [Compound 659, 7-[(3S)-3,4-dimethylpiperazin-1-yl]-5-fluoro-3-(6-methylimidazo[1,2-a]pyrazin-2-yl)-2H-chromen-2-one] | < 0.1 | **** (fold increase between >1.5 and ≤1.65) | < 300

Reference: patent USRE47689E1, “Compounds for treating spinal muscular atrophy” (PTC Therapeutics, Inc., priority 2011, dated 2019)
